Laboratory results from patent publication US11801242B2, “Compositions and methods for adjuvant cancer therapeutics” (DUKE UNIVERSITY, priority 2018, dated 2023).

How the values were obtained:
A375 cells = assay: Clonogenic survival after siRNA knock-down of REV1; assay type: cell-based, human; conditions: RE01 1.5 μM, cisplatin 1 μM
Experimental: (§1) 300 cells were plated in triplicate in 6-well plates for 24 hours. Cisplatin (cis-diammineplatinum(II) dichloride, Sigma-Aldrich) was added to relevant wells for 24 hours. All plates were incubated at 37° C. for 24 hours. Media were changed the next day and in fresh media RE01 (at 1.5 μM concentration) was added to untreated or cisplatin-treated cells for another 24 hours. Media were changed at the end of these combination treatments, and cells were allowed to recover for 7 days. To stain the resulting colonies, media were aspirated and the fixative (50% methanol and 10% glacial acetic acid) was added for 10 minutes, followed by the addition of 0.02% Coomassie brilliant blue R-250 stain (ThermoFisher) in methanol: acetic acid: water in a ratio of 46.5:7:46.5 (v/v/v). Colonies that stained blue and contained at least 40 cells were counted. Relative cell survival or colony formation was calculated by dividing colony counts from treated samples by the DMSO or untreated controls.
(§2) REV1 was knocked down by transiently transfecting SMARTpool: ON-TARGETplus REV1 siRNA by nucleofection. The siRNA was mixed with the nucleofection buffer Mouse/Rat Hepatocyte Nucleofector™ Kit (Lonza) and electroporated using the Nucleofector™ 2b device. Full-length mouse Rev1 on the pC3 plasmid (Clontech) was nucleofected using the same buffers and device into Rev1^−/− cells to complement the REV1 function.

HT1080 cells [1] = assay: Clonogenic survival after siRNA knock-down of REV1; assay type: cell-based, human; conditions: RE01 1.5 μM, cisplatin 1 μM
Experimental: as §1, §2

Rev1^−/− MEF cells = assay: Clonogenic survival assay; assay type: cell-based, mouse
Experimental: as §1, §2

Rev1^+/+ MEF cells = assay: Clonogenic survival assay; assay type: cell-based, mouse; conditions: RE01 1.5 μM + cisplatin 0.5 μM vs cisplatin alone
Experimental: as §1

HT1080 cells [2] = assay: HPRT mutagenesis assay; assay type: cell-based, human; conditions: RE01 1.5 μM, cisplatin 0.5 μM
Experimental: For the hypoxanthine-guanine phosphoribosyl transferase (HPRT) mutagenesis assay, cells were first grown in HAT (complete media with 100 μM Hypoxanthine, 0.4 μM Aminopterin and 16 μM Thymidine) media (ThermoFisher) for 14 days to weed out any spontaneous HPRT mutants. After HAT selection, cells were exposed to cisplatin at the 0.5 μM concentration for 24 hours. Then, in fresh media, RE01 at a concentration of 1.5 μM was added to cells. After 24 hours of drug treatment, cells were trypsinized and washed with PBS. While 200-600 cells were plated in complete media in triplicates in 6-well plates to determine clonal efficiency, the rest of the cells were plated in complete media to allow the expression of the phenotype for 8 days. Then, 500,000 cells per treatment were plated in sextuplicate in 10 cm dishes in 6-TG media to allow the proliferation of mutated HPRT^− cells. Colonies were fixed (50% methanol and 10% glacial acetic acid), stained (0.02% Coomassie brilliant blue R-250 stain in methanol: acetic acid: water in a ratio of 46.5:7:46.5 (v/v/v)), and counted after 14-20 days. The HPRT mutation frequency was calculated as the ratio of the number of HPRT^− colonies in 6-TG media to the number of surviving colonies plated in complete media to determine clonal efficiency.

HT1080 cells [3] = assay: Gapped plasmid TLS assay, cisplatin 1,2-GG lesion; assay type: cell-based, human; conditions: pre-treatment with RE01 1.5, 3.0 and 15.0 μM for 24 hours
From the text: The double stranded plasmid pUC19 with ampicillin resistance was modified to include the oligonucleotide containing cisplatin 1,2-GG lesion on one strand and a gapped region across it. Briefly, the 16mer cisplatin-containing oligonucleotide was flanked by two 21mer regular DNA strands (5′-[…]-3′ (SEQ ID NO: 2) on the 5′ end and 5′-[…]-3′ (SEQ ID NO: 3) on the 3′ end) and elongated to a 58mer lesion-containing single strand DNA. After linearizing the plasmid by restriction endonucleases BstAPI and BspQI (New England Biolabs), the 58mer oligonucleotide was mixed with two scaffolds (5′-TGCATGCGCGCTACGACG-3′ (SEQ ID NO: 4) and 5′-[…]-3′ (SEQ ID NO: 5)) and ligated with the linear pUC19 plasmid to build up a circular plasmid containing a site-specific cisplatin 1,2-GG lesion and a 16-nucleotide gap on the opposite strand.
A competitor gapped plasmid that was three bases longer (started from a 19mer oligonucleotide 5′-CTCTCTAGGCTCACTTCTA-3′ (SEQ ID NO: 6)) than the lesion-containing plasmid was used as the internal control. The cells were pre-treated with either DMSO or RE01 (1.5, 3.0 and 15.0 μM) for 24 hours. […] The gap-filling efficiency by TLS was calculated by dividing the output ratio obtained from HPLC-MS with the input ratio (4:1) and the results were normalized to 100%.

CC(C)CC(=O)c1c(Nc2ccc(Cl)cc2Cl)[nH]c2c(Cl)ccc([N+](=O)[O-])c2c1=O [RE01, 8-chloro-2-((2,4-dichlorophenyl)amino)-3-(3-methylbutanoyl)-5-nitroquinolin-4(1H)-one]
RE01 mediated sensitization to cisplatin (A375 cells): abolished | RE01 mediated sensitization to cisplatin (HT1080 cells [1]): abolished | colony forming ability (Rev1^−/− MEF cells; RE01 1.5 μM + cisplatin 0.5 μM vs cisplatin alone): but not in Rev1^−/− MEF cells | RE01 mediated sensitization to cisplatin (Rev1^−/− MEF cells; cells complemented with plasmid encoding REV1, RE01 1.5 μM, cisplatin 1 μM): fully restored | colony forming ability (Rev1^+/+ MEF cells): significantly reduced | frequency of spontaneous and cisplatin-induced HPRT mutations (HT1080 cells [2]): decreased | bypass efficiency of 1,2-GG cisplatin DNA adduct (HT1080 cells [3]): suppresses
